What was measured:
HIPK2-Smad3 interaction = molecular target: T1, HIPK2-Smad3 interaction (Homo sapiens, UniProt Q9H2X6); experiment: His6-HIPK2 cobalt resin pull-down of endogenous Smad3 in 293T cells; format: cell-based; conditions: 293T cells overexpressing His6-HIPK2, two different doses
T1 construct: host or cells: HEK 293T
Description: 4×Smad binding element-driven firefly luciferase (SBE4-Luc) plasmid was purchased from Addgene (#16495). Renilla luciferase reporter plasmid (pRL) was purchased from Promega. Active domain deleted HIPK2 was previously described by Jin et al. [Nat Med, 18: 580-588]. The His6-HIPK2 construct was generated by PCR amplification of coding region using plasmid containing human HIPK2 gene (GeneCopoeia™) as the template.
293T cells were lysed in equilibration/wash buffer (50 mM sodium phosphate, 300 mM sodium chloride, 10 mM imidazole; pH 7.4) 48 hours after transfection of His6-tagged HIPK2 expression plasmid. Cleared cell lysate was incubated with HisPur Cobalt resin (Thermo Fisher Scientific, NY) on end-over-end rotator at 4° C. for 2 hours. After centrifugation (700×g, 2 min, 4° C.), the resin was washed 3 times in a wash buffer. The bound protein complexes were finally eluted with elution buffer (50 mM sodium phosphate, 500 mM sodium chloride, 150 mM imidazole; pH 7.4) and subjected to western blot analysis.
Cells were lysed in M-PER mammalian protein extraction reagent (#78501, Thermo Fisher Scientific, NY) containing protease inhibitor cocktail (#11836153001, Roche) and phosphatase inhibitors (50 mM NaF, 10 mM β-glycerophosphate, 5 mM sodium pyrophosphate, 2 mM Na3VO4). Total protein concentration was measured using the Bradford reagent (#500-0006, Bio-Rad). […]

[1] = test system: lactate dehydrogenase (LDH) level in cell culture medium; experiment: LDH cytotoxicity assay of cell culture medium; format: cell-based; conditions: up to 30 μM, 16 hours of incubation
Description: Medium LDH measurement was performed using LDH Cytotoxicity Assay Kit (ThermoFisher scientific, NY) according to manufacturer's instructions.
In order to rule out the possibility that the reduction in Smad3 activity is due to the cytotoxicity of increasing concentration of compound, lactate dehydrogenase (LDH) level in cell culture medium was examined. LDH is released by damaged cells.

HIPK2 [2] = molecular target: T2, HIPK2 (Homo sapiens, UniProt Q9H2X6); experiment: HIPK2 kinase assay (ProQinase GmbH); format: biochemical; set-up: purchased ProQinase GmbH (Freiburg, Germany), assay service; conditions: increasing concentrations
Description: HIPK2 kinase assay was performed by ProQinase GmbH (Freiburg, Germany).
Kinase assay was performed by ProQinase GmbH (Freiburg, Germany).

HIPK2 [3] = molecular target: T2, HIPK2; experiment: Drug affinity responsive target stability (DARTS) with pronase in 293T lysates; format: binding; set-up: endogenous in cells; host or cells: HEK 293T cell lysate; conditions: 1:10,000 pronase/cell lysate ratio
Description: Drug affinity responsive target stability (DARTS) method was used to identify protein targets of test compound as described previously by Pai et al. [Methods Mol Biol, 1263: 287-298, 2015]. Briefly, 293T lysates were incubated with test compound at room temperature for 1 hour. After incubation, cell lysates were subjected to proteolysis with various concentrations of pronase (#10165921001, Roche) at room temperature for 20 minutes. Proteolysis was stopped by addition of 5× protein loading buffer and heating at 90° C. for 5 minutes. Protein samples were subjected to western blot analysis.
Drug affinity responsive target stability (DARTS) has recently been developed to identify potential protein targets of small molecules. It is based on the principle that the binding of small molecule compound to the target protein changes the protein structure such that it can increase its stability and confer protection against proteolysis. In order to test whether compounds of the invention bind directly to HIPK2, we performed the DARTS experiments using pronase in presence of Example 1. […] Because HIPK2 abundance is quite low in many known cell types, we overexpressed His6-tagged HIPK2 in 293T cells for testing its interaction with the endogenous Smad3. The expression of His6-HIPK2 and Smad3 in 293T cells was confirmed by western blot. We pulled down His6-HIPK2 using cobalt beads and checked for the presence of Smad3 in cells treated with two different doses of Example 1.

[4] = test system: TGF-β1/Smad3 downstream target genes (Col I, CTGF, FN1, MMP2, PAI1, α-SMA); experiment: Real-time PCR of TGF-β1/Smad3 downstream target genes in hRTECs; format: cell-based, human
Description: HEK 293T (293T) cells (ATCC) were cultured in Dulbecco's Modified Eagle's medium (Invitrogen) containing 10% fetal bovine serum (FBS), 0.5% penicillin and streptomycin at 37° C. and 5% CO2 humidified environment. Human primary tubular cells (PromoCell GmbH, Heidelberg, Germany) were cultured in Renal Epithelial Cell Growth Medium-2 (Promocell GmbH) with supplements according to manufacturer's protocol human primary renal tubular epithelial cells with <5 passages were used for all studies. For HIV infection of hRTECs, pNL4-3:ΔG/P-EGFP, a gag/poi-deleted HIV-1 construct that contains EGFP in the gag open reading frame, and pHR-IRES-EGFP, a control EGFP construct, were used to generate the VSV-G pseudotyped virus. Cells were infected with HIV pseudotyped virus or control virus for 2 days before the treatment with test compound.
Total RNA was extracted using Trizol (Invitrogen). 400 ng of total RNA was reverse transcribed to cDNA using SuperScript III first strand synthesis system (Invitrogen).
Quantitative RT-PCR was performed using 7500 Real-Time PCR System (Applied Biosystems). Gene level was normalized to glyceraldehyde 3-phosphate dehydrogenase (GAPDH) and expressed as fold change. The primer sets used were as follows:
The effects of compounds of the invention on Smad3 phosphorylation and the expression of the downstream target genes of TGF-β/Smad3 pathway was also examined. […]

T2 sequence (Q9H2X6 whole entry): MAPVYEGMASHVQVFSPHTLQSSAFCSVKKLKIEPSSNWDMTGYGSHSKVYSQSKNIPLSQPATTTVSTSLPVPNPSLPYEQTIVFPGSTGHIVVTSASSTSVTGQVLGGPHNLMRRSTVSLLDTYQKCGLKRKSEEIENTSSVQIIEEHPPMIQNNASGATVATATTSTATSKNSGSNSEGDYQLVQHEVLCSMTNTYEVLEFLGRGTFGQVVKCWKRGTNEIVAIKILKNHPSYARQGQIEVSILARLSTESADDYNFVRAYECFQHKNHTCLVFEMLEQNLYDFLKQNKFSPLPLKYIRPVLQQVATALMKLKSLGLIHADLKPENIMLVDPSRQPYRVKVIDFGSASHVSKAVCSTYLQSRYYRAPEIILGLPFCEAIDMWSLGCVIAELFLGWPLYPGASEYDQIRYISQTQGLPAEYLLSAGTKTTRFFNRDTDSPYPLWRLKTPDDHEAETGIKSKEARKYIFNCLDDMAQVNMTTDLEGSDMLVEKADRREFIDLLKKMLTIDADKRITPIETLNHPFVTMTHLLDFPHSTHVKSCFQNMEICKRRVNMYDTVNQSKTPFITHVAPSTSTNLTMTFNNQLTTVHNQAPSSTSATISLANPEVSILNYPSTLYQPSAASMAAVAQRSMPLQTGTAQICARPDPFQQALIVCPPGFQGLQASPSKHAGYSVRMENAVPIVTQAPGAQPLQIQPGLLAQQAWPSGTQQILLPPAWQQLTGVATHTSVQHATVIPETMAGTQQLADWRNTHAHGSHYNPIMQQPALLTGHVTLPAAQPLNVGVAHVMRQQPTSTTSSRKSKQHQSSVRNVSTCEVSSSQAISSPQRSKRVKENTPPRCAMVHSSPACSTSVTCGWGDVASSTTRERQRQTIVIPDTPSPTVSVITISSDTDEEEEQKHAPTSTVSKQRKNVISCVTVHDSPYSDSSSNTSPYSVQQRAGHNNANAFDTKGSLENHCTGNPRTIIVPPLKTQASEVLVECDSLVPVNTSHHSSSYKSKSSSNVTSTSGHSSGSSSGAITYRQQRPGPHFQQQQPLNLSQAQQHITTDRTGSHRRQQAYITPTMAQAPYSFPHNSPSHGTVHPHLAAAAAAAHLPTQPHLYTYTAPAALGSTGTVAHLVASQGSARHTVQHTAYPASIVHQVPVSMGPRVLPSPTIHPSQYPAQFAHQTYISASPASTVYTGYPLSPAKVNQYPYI
T1 sequence (Q9H2X6 whole entry): as above

Compound: COc1ccc2cc(-c3nc(-c4ccc(Br)cc4)no3)cnc2c1 [Example 1, 3-(4-Bromophenyl)-5-(7-methoxyquinolin-3-yl)-1,2,4-oxadiazole]
- interaction between Smad3 and HIPK2 (His6-HIPK2 pull-down) (HIPK2-Smad3 interaction): reduced the interaction between Smad3 and HIPK2 in a dose-dependent manner
- LDH level in the culture medium [1]: no significant increase
- inhibition of HIPK2 kinase activity (HIPK2 [2]): No inhibition
- protection of HIPK2 from pronase digestion (DARTS) (HIPK2 [3]; 30 μm): partial protection
- protection of HIPK2 from pronase digestion (DARTS) (HIPK2 [3]; 100 μm): complete protection
- protection of HIPK2 from pronase degradation (DARTS) (HIPK2 [3]; versus DMSO control): protected from degradation
- expression of Col I, CTGF, FN1, MMP2, PAI1 and α-SMA (real-time PCR) ([4]; absence of TGF-β1 stimulation): did not affect expression
- expression of Col I, CTGF, FN1, MMP2, PAI1 and α-SMA (real-time PCR) ([4]; treated with TGF-β1, increasing concentrations): progressively inhibited

— US10669266B2, “Oxadiazole inhibitors of HIPK2 for treating kidney fibrosis” (ICAHN SCHOOL OF MEDICINE AT MOUNT SINAI, priority 2017, dated 2020)
